Tests used:
[1] = after oral doses; cited from earlier work
[2] = hydrochloride salt; cited from earlier work
[3] = test system: mu over delta sites; details: cited from earlier work
[4] = cited from earlier work
[5] = pKa values of the drug substances
[6] = Simulated extractability of naltrexone HCl from hydrocodone bitartrate CR AcroContin tablets, 4 tablets in 25 mL solvent (HPLC recovery); details: for solubility in acetone: poor recoveries; for dissolution in the solvents: all of the solvents except acetone
[7] = Simulated extractability of naltrexone HCl from hydrocodone bitartrate CR AcroContin tablets, 5 tablets in 5 mL solvent (HPLC recovery); type: physicochemical; details: for extractable from the tablets at the higher pH's: high pH (substantially greater than pH 10, preferably above pH 11); for % Precipitated: 5 tablets in 5 mL
[8] = test system: effects of morphine-like opioid agonist; details: cited from earlier work
[9] = in comparison to a 15 mg dose of hydrocodone
Text: In certain preferred embodiments, the opioid agonist is hydrocodone.

[10] = Extractability of naltrexone HCl (1.5 mg) from oxycodone HCl (15 mg), 5 tablets/5 mL solvent; type: physicochemical

## C[C@H]1[C@H]2Cc3ccc(O)cc3[C@]1(C)CCN2CC1CC1 [cyclazocine]
[1]
  duration of action: ~24 h

## O=C1CC[C@@]2(O)[C@H]3Cc4ccc(O)c5c4[C@@]2(CCN3CC2CC2)[C@H]1O5 [Naltrexone]
[2]
  soluble in water: about 100 mg/cc
[3]
  blocking action, receptor preference: strong preferential blocking action
[4]; in vivo
  protein binding: approximately 21%
[4]; oral
  oral bioavailability: 5-40%
[5]; at amine functional group
  pKa: 8.4
[5]; at phenol functional group
  pKa: 10.3
[6]
  solubility in acetone: less soluble
  dissolution in the solvents: dissolved completely
[7]
  extractable from the tablets at the higher pH's: about 10%
[7]; listed as Naltrexone Hydrochloride
  extractable from the tablets at the higher pH's: ~10%
[1]
  duration of action: ~24 h

## C=CCN1CC[C@]23c4c5ccc(O)c4O[C@H]2C(=O)CC[C@@]3(O)[C@H]1C5 [naloxone]
[8]; 0.4-0.8 mg intramuscularly or intravenously in man
  antagonism of morphine-like opioid agonist effects: prevent or promptly reverse the effects of morphine-like opioid agonist
[8]; one mg intravenously
  block of the effect of 25 mg of heroin: completely block

## COc1ccc2c3c1O[C@H]1C(=O)CC[C@@]4(O)[C@@H](C2)N(C)CC[C@]314 [Oxycodone]
[9]
  Equianalgesic Doses of Opioids, Calculated Dose: 13.5 mg
[10]; diluent Ethanol
  % Precipitated: 13%
[10]; diluent IPA
  % Precipitated: 86%
[10]; diluent Methanol
  % Precipitated: 13%
[10]; diluent pH 6.9
  % Precipitated: 6%
[10]; diluent pH 8.1
  % Precipitated: 87%
[10]; diluent pH 9.4
  % Precipitated: 98%
[10]; diluent pH 10.2
  % Precipitated: 98%
[10]; diluent pH 11.0
  % Precipitated: 98%
[10]; diluent pH 11.9
  % Precipitated: 98%
[10]; diluent pH 12.8
  % Precipitated: 98%

## COc1ccc2c3c1O[C@H]1[C@@H](O)C=C[C@H]4[C@@H](C2)N(C)CC[C@@]341 [Codeine]
[9]
  Equianalgesic Doses of Opioids, Calculated Dose: 90.0 mg

## CCC(=O)C(CC(C)N(C)C)(c1ccccc1)c1ccccc1 (centres unmarked) [Methadone]
[9]
  Equianalgesic Doses of Opioids, Calculated Dose: 9.0 mg

## CN1CC[C@]23CCCC[C@H]2[C@H]1Cc1ccc(O)cc13 [Levorphanol]
[9]
  Equianalgesic Doses of Opioids, Calculated Dose: 1.8 mg

## Meperidine
[9]
  Equianalgesic Doses of Opioids, Calculated Dose: 135.0 mg

## COc1ccc2c3c1OC1C(=O)CC[C@H]4[C@@H](C2)N(C)CC[C@]314 (some centres unmarked) [Hydrocodone, 4,5-epoxy-3-methoxy-17-methylmorphinan-6-one]
[5]; at amine functional group
  pKa: 9.2
[6]
  solubility in acetone: less soluble
  dissolution in the solvents: dissolved completely
[9]
  Equianalgesic Doses of Opioids, Calculated Dose: 15.0 mg
[7]; diluent pH 7.1
  % Precipitated: 8%
[7]; diluent pH 8.0
  % Precipitated: 12%
[7]; diluent pH 9.0
  % Precipitated: 27%
[7]; diluent pH 10.0
  % Precipitated: 28%
[7]; diluent pH 11.0
  % Precipitated: 21%
[7]; diluent pH 12.0
  % Precipitated: 83%
[7]; diluent pH 12.7
  % Precipitated: 81%
[7]
  extractable from the tablets at the higher pH's: about 80%
